Target: T1, human DP2 receptor (Homo sapiens, UniProt Q9Y5Y4)
T1 construct: expressed in transfected cells; host or cells: CHO-K1 FLP-In (Invitrogen, catalog no. R758-07), stably transfected
T1 sequence (Q9Y5Y4 1-395): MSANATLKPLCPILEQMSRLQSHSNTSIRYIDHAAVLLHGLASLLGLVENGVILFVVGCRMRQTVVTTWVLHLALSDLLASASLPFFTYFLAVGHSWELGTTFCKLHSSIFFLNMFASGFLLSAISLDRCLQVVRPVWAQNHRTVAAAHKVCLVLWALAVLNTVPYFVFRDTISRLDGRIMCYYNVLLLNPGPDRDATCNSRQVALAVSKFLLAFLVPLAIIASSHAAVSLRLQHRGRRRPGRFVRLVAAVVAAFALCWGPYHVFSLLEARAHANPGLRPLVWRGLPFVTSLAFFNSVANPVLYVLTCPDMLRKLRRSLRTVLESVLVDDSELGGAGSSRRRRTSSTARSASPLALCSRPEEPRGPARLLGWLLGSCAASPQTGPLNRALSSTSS
Experiment: Prostaglandin D2 binding inhibition assay (scintillation proximity assay, 3H PGD2, membranes of transfected CHO cells)
Details: SPA, 5.5 nM 3H PGD2, CHO-K1 FLP-In human DP2 membranes; upper limit determinable 30 μM; read-out: IC50 ranges for inhibition of PGD2 binding to human DP2
Description: The ability of compounds to inhibit binding of prostaglandin D2 (PGD2) to the human DP2 receptor was measured using a scintillation proximity assay (SPA). Chinese Hamster Ovary FLP-In cell lines (CHO-K1 FLP-In, Invitrogen, catalog no. R758-07) were stably transfected with the human DP2 gene (Genebank: AY507142). Cell lines were grown in suspension in EX-CELL 302 CHO Serum-free medium (Sigma, catalog no. 14324C) supplemented with 1% Fetal Bovine Serum (Invitrogen no. 10099-141), 2 mM L-glutamine (Invitrogen, catalog no. 25030-081) and 0.5 mg/ml Hygromycin B (Invitrogen, catalog no. 10687-010). Cells were collected by centrifugation in a Beckman Coulter Allegra X-12R centrifuge at 150×g for 5 minutes at room temperature.
Membranes from transfected cells were isolated for binding assays. Cell pellets containing approximately 2×10^9 cells were resuspended in 35 ml of cold membrane homogenization buffer (10 mM Tris (Sigma, catalog no. T2663), 1 mM EDTA (Fluka BioChemika no. 03690), and 70 μl of protease inhibitor cocktail (Sigma, catalog no. P8340)). Cells were homogenized with 30 strokes of a dounce homogenizer (Kontes, catalog no. 885303-0040), and the solution centrifuged at 200×g for 10 minutes. The supernatant was transferred to a 50 ml Oakridge tube (Beckman, catalog no. 357000) and centrifuged in a Beckman Coulter Avanti J-26×PI centrifuge with a JA30.50 rotor at 81,000×g for 1 hour at 15° C. The pellet was resuspended in membrane storage buffer (50 mM Tris (Sigma, catalog no. T2663), 2.5 mM EDTA (Fluka BioChemika no. 03690), 5 mM magnesium chloride (Sigma, catalog no. M1028), 100 mg/ml sucrose (Sigma, catalog no. 50389) and a 1:500 dilution of protease inhibitor cocktail (Sigma, catalog no. P8340)) and the total protein was quantitated using a BCA protein measurement kit (Pierce, catalog no. 23225). Aliquots were frozen at −80° C. until used. Compounds were tested for their ability to inhibit PGD2 binding to the purified membranes. 5 μg of the purified membranes, 0.25 mg of wheat germ agglutinin PVT SPA beads (GE Healthcare, catalog no. RPNQ0060) and 5.5 nM of ^3H PGD2 (PerkinElmer, catalog no. NET-616) were mixed in assay buffer ((50 mM Tris (Sigma, catalog no. T2663), 10 mM magnesium chloride (Sigma, catalog no. M1028), 100 mM sodium chloride (Sigma, catalog no. S6546) and 0.1% bovine serum albumin (Sigma, catalog no. A2153)). Using a Multidrop bulk dispenser, 75 μl of the assay mixture was dispensed in Optiplates (PerkinElmer, catalog no. 6007299) containing the compounds to be tested. After a 60 minute incubation period at room temperature, the plates were read on a PerkinElmer Topcount NXT HTS, and individual wells were quantitated as counts per minute (CPM). Data were expressed as a percent of the difference between the maximum and minimum responses. IC50 values (the concentration of compound producing 50% of the maximal response) were determined using a two-parameter non-linear regression algorithm analyzed using CambridgeSoft Bioassay software. Table 2 gives the range of IC50 values for claimed compounds in the binding assay.

| Structure (SMILES) | IC50 |
| --- | --- |
| COc1cccc(S(=O)(=O)N2CCC(n3c(=O)n(CC(=O)O)c4cccnc43)CC2)c1 [Compound 78, 2-(3-(1-(3-methoxyphenyl-sulfonyl)piperidin-4-yl)-2-oxo-2,3-dihydro-1H-imidazo[4,5-b]pyridin-1-yl)acetic acid] | 1 to 10 µM |
| O=C(O)Cn1c(=O)n(C2CCN(S(=O)(=O)c3ccccc3)CC2)c2ncccc21 [Compound 79, 2-(2-oxo-3-(1-(phenylsulfonyl)piperidin-4-yl)-2,3-dihydro-1H-imidazo[4,5-b]pyridin-1-yl)acetic acid] | 1 to 10 µM |
| O=C(O)Cn1c(=O)n(C2CCN(S(=O)(=O)c3ccc(Cl)s3)CC2)c2ncccc21 [Compound 80, 2-(3-(1-(5-chlorothiophen-2-yl-sulfonyl)piperidin-4-yl)-2-oxo-2,3-dihydro-1H-imidazo[4,5-b]pyridin-1-yl)acetic acid] | 1 to 10 µM |
| O=C(O)Cn1c(=O)n(C2CCN(S(=O)(=O)c3ccc(-c4ccccc4)cc3)CC2)c2ncccc21 [Compound 81, 2-(3-(1-(biphenyl-4-ylsulfonyl)piperidin-4-yl)-2-oxo-2,3-dihydro-1H-imidazo[4,5-b]pyridin-1-yl)acetic acid] | 1 to 10 µM |
| O=C(O)Cn1c(=O)n(C2CCN(S(=O)(=O)c3cc(Cl)ccc3Cl)CC2)c2ncccc21 [Compound 82, 2-(3-(1-(2,5-dichlorophenylsulfonyl)piperidin-4-yl)-2-oxo-2,3-dihydro-1H-imidazo[4,5-b]pyridin-1-yl)acetic acid] | < 1 µM |
| O=C(O)Cn1c(=O)n(C2CCN(S(=O)(=O)c3cc(F)c(Br)cc3F)CC2)c2ncccc21 [Compound 83, 2-(3-(1-(4-bromo-2,5-difluorophenyl-sulfonyl)piperidin-4-yl)-2-oxo-2,3-dihydro-1H-imidazo[4,5-b]pyridin-1-yl)acetic acid] | < 1 µM |
| O=C(O)Cn1c(=O)n(C2CCN(S(=O)(=O)c3cc(Cl)cc(Cl)c3)CC2)c2ncccc21 [Compound 84, 2-(3-(1-(3,5-dichlorophenyl-sulfonyl)piperidin-4-yl)-2-oxo-2,3-dihydro-1H-imidazo[4,5-b]pyridin-1-yl)acetic acid] | 1 to 10 µM |
| O=C(O)Cn1c(=O)n(C2CCN(S(=O)(=O)c3ccccc3C(F)(F)F)CC2)c2ncccc21 [Compound 85, 2-(2-oxo-3-(1-(2-(trifluoromethyl)phenylsulfonyl)piperidin-4-yl)-2,3-dihydro-1H-imidazo[4,5-b]pyridin-1-yl)acetic acid] | < 1 µM |
| O=C(O)Cn1c(=O)n(C2CCN(S(=O)(=O)c3cc(Cl)c(F)cc3F)CC2)c2ncccc21 [Compound 86, 2-(3-(1-(5-chloro-2,4-difluorophenyl-sulfonyl)piperidin-4-yl)-2-oxo-2,3-dihydro-1H-imidazo[4,5-b]pyridin-1-yl)acetic acid] | < 1 µM |
| O=C(O)Cn1c(=O)n(C2CCN(S(=O)(=O)c3ccc(Br)cc3F)CC2)c2ncccc21 [Compound 87, 2-(3-(1-(4-bromo-2-fluorophenyl-sulfonyl)piperidin-4-yl)-2-oxo-2,3-dihydro-1H-imidazo[4,5-b]pyridin-1-yl)acetic acid] | < 1 µM |
| O=C(O)Cn1c(=O)n(C2CCN(S(=O)(=O)c3ccc(F)c(Cl)c3)CC2)c2ncccc21 [Compound 88, 2-(3-(1-(3-chloro-4-fluorophenyl-sulfonyl)piperidin-4-yl)-2-oxo-2,3-dihydro-1H-imidazo[4,5-b]pyridin-1-yl)acetic acid] | 1 to 10 µM |
| COc1ccc(S(=O)(=O)N2CCC(n3c(=O)n(CC(=O)O)c4cccnc43)CC2)cc1 [Compound 89, 2-(3-(1-(4-methoxyphenylsulfonyl)piperidin-4-yl)-2-oxo-2,3-dihydro-1H-imidazo[4,5-b]pyridin-1-yl)acetic acid] | 1 to 10 µM |
| CS(=O)(=O)c1ccc(S(=O)(=O)N2CCC(n3c(=O)n(CC(=O)O)c4cccnc43)CC2)cc1 [Compound 90, 2-(3-(1-(4-(methylsulfonyl)phenyl-sulfonyl)piperidin-4-yl)-2-oxo-2,3-dihydro-1H-imidazo[4,5-b]pyridin-1-yl)acetic acid] | > 30 µM |
| O=C(O)Cn1c(=O)n(C2CCN(S(=O)(=O)c3cc(F)c(Cl)cc3F)CC2)c2ncccc21 [Compound 91, 2-(3-(1-(4-chloro-2,5-difluoro-phenylsulfonyl)piperidin-4-yl)-2-oxo-2,3-dihydro-1H-imidazo[4,5-b]pyridin-1-yl)acetic acid] | < 1 µM |
| O=C(O)Cn1c(=O)n(C2CCN(S(=O)(=O)c3cc(F)c(F)cc3F)CC2)c2ncccc21 [Compound 92, 2-(2-oxo-3-(1-(2,4,5-trifluoro-phenylsulfonyl)piperidin-4-yl)-2,3-dihydro-1H-imidazo[4,5-b]pyridin-1-yl)acetic acid] | 1 to 10 µM |
| O=C(O)Cn1c(=O)n(C2CCN(S(=O)(=O)c3ccc(F)cc3F)CC2)c2ncccc21 [Compound 93, 2-(3-(1-(2,4-difluorophenyl-sulfonyl)piperidin-4-yl)-2-oxo-2,3-dihydro-1H-imidazo[4,5-b]pyridin-1-yl)acetic acid] | < 1 µM |
| Cc1ccccc1S(=O)(=O)N1CCC(n2c(=O)n(CC(=O)O)c3cccnc32)CC1 [Compound 94, 2-(2-oxo-3-(1-(o-tolylsulfonyl)piperidin-4-yl)-2,3-dihydro-1H-imidazo[4,5-b]pyridin-1-yl)acetic acid] | < 1 µM |
| Cc1cc(S(=O)(=O)N2CCC(n3c(=O)n(CC(=O)O)c4cccnc43)CC2)ccc1F [Compound 95, 2-(3-(1-(4-fluoro-3-methylphenylsulfonyl)piperidin-4-yl)-2-oxo-2,3-dihydro-1H-imidazo[4,5-b]pyridin-1-yl)acetic acid] | 1 to 10 µM |
| Cc1c(F)cccc1S(=O)(=O)N1CCC(n2c(=O)n(CC(=O)O)c3cccnc32)CC1 [Compound 96, 2-(3-(1-(3-fluoro-2-methylphenylsulfonyl)piperidin-4-yl)-2-oxo-2,3-dihydro-1H-imidazo[4,5-b]pyridin-1-yl)acetic acid] | < 1 µM |
| COc1ccccc1S(=O)(=O)N1CCC(n2c(=O)n(CC(=O)O)c3cccnc32)CC1 [Compound 97, 2-(3-(1-(2-methoxyphenylsulfonyl)piperidin-4-yl)-2-oxo-2,3-dihydro-1H-imidazo[4,5-b]pyridin-1-yl)acetic acid] | 1 to 10 µM |
| CCCCOc1ccc(S(=O)(=O)N2CCC(n3c(=O)n(CC(=O)O)c4cccnc43)CC2)cc1 [Compound 98, 2-(3-(1-(4-butoxyphenylsulfonyl)piperidin-4-yl)-2-oxo-2,3-dihydro-1H-imidazo[4,5-b]pyridin-1-yl)acetic acid] | < 1 µM |
| CCOc1ccc(S(=O)(=O)N2CCC(n3c(=O)n(CC(=O)O)c4cccnc43)CC2)cc1 [Compound 99, 2-(3-(1-(4-ethoxyphenylsulfonyl)piperidin-4-yl)-2-oxo-2,3-dihydro-1H-imidazo[4,5-b]pyridin-1-yl)acetic acid] | 1 to 10 µM |
| CS(=O)(=O)c1ccccc1S(=O)(=O)N1CC[C@@H](n2c(=O)n(CC(=O)O)c3cccnc32)C1 [Compound 100, (R)-2-(3-(1-(2-(methylsulfonyl)phenylsulfonyl)pyrrolidin-3-yl)-2-oxo-2,3-dihydro-1H-imidazo[4,5-b]pyridin-1-yl)acetic acid] | < 1 µM |
